This note sets out measurements from patent publication US20250171457A1, “NITROGEN-CONTAINING HETEROCYCLIC COMPOUND HAVING NRF2 ACTIVATION EFFECT” (CHUGAI SEIYAKU KABUSHIKI KAISHA, priority 2022, published 2025).

For this assay, the system named is Nrf2 transcriptional activity (pARE-Luc reporter) in HepG2 cells. The experiment in a line: In vitro Nrf2 transcriptional activity measurement by ARE-dependent reporter assay in HepG2 cell. The settings on record: Homo sapiens; HepG2 cells transfected with pARE-Luc, 4 hours at 37° C.; luciferase activity of Example 1-54 or Example 17-23 at 3.75 μM defined as 100%. It is filed as cell-based, human. In a few lines: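 HepG2 cells transfected with pGL4.37 (pARE-Luc), replated onto compound and incubated 4 h at 37° C; luciferase read by Bright-Glo luminescence. Response normalized to 100% set by a reference compound at 3.75 μM; EC50 from dose-response curve.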
For orientation: Reporter assays use an easily measured gene product as a stand-in for the process of interest.
Take `C[C@@H]1CN(C)[C@@H](C)CN1c1cc(Cl)c(C(=O)N2COc3c(cccc3-c3cc(N4C5CCC4COC5)c(C(=O)O)cc3F)C2)c(Cl)c1` [Compound 9-11, 4-[3-[2,6-Dichloro-4-[(2R,5S)-2,4,5-trimethylpiperazin-1-yl]benzoyl]-2,4-dihydro-1,3-benzoxazin-8-yl]-5-fluoro-2-(3-oxa-8-azabicyclo[3.2.1]octan-8-yl)benzoic acid]: the EC50 (commonly the midpoint of the concentration-response curve) was 19 nM.

`C[C@H]1CN(C)CCN1c1cc(Cl)c(C(=O)N2COc3c(cccc3-c3cc(N4C5CCC4COC5)c(C(=O)O)cc3F)C2)c(Cl)c1` [Compound 9-12, 4-[3-[2,6-Dichloro-4-[(2S)-2,4-dimethylpiperazin-1-yl]benzoyl]-2,4-dihydro-1,3-benzoxazin-8-yl]-5-fluoro-2-(3-oxa-8-azabicyclo[3.2.1]octan-8-yl)benzoic acid] registered an EC50 of 3.1 nM. Against the preceding compound, the EC50 is about 6.1-fold lower.

`C[C@H]1CN(c2cc(Cl)c(C(=O)N3COc4c(cccc4-c4cc(N5C6CCC5COC6)c(C(=O)O)cc4F)C3)c(Cl)c2)[C@@H](C)CN1C` [Compound 9-13, 4-[3-[2,6-Dichloro-4-[(2S,5S)-2,4,5-trimethylpiperazin-1-yl]benzoyl]-2,4-dihydro-1,3-benzoxazin-8-yl]-5-fluoro-2-(3-oxa-8-azabicyclo[3.2.1]octan-8-yl)benzoic acid] returned an EC50 of 6.7 nM.

`CN1CCN(c2cc(Cl)c(C(=O)N3COc4c(cccc4-c4cc(N5C6CCC5COC6)c(C(=O)O)cc4F)C3)c(Cl)c2)C(C)(C)C1` [Compound 9-14, 4-[3-[2,6-Dichloro-4-(2,2,4-trimethylpiperazin-1-yl)benzoyl]-2,4-dihydro-1,3-benzoxazin-8-yl]-5-fluoro-2-(3-oxa-8-azabicyclo[3.2.1]octan-8-yl)benzoic acid] yielded an EC50 of 11 nM.

`O=C(O)c1cc(F)c(-c2cccc3c2OCN(C(=O)c2c(Cl)cc(N4CCN(C5COC5)C5CC54)cc2Cl)C3)cc1N1C2CCC1COC2` (stereo not shown) [Compound 9-15, 4-[3-[2,6-Dichloro-4-[5-(oxetan-3-yl)-2,5-diazabicyclo[4.1.0]heptan-2-yl]benzoyl]-2,4-dihydro-1,3-benzoxazin-8-yl]-5-fluoro-2-(3-oxa-8-azabicyclo[3.2.1]octan-8-yl)benzoic acid] showed an EC50 of 14 nM.

`C[C@@H]1CN(C2COC2)CCN1c1cc(Cl)c(C(=O)N2COc3c(cccc3-c3cc(N4C5CCC4COC5)c(C(=O)O)cc3F)C2)c(Cl)c1` [Compound 9-16, 4-[3-[2,6-Dichloro-4-[(2R)-2-methyl-4-(oxetan-3-yl)piperazin-1-yl]benzoyl]-2,4-dihydro-1,3-benzoxazin-8-yl]-5-fluoro-2-(3-oxa-8-azabicyclo[3.2.1]octan-8-yl)benzoic acid] showed an EC50 of 4.8 nM.

In turn, `O=C(O)c1cc(F)c(-c2cccc3c2OCN(C(=O)c2c(Cl)cc(N4CC5CCC(C4)N5C4COC4)cc2Cl)C3)cc1N1C2CCC1COC2` [Compound 9-17, 4-[3-[2,6-Dichloro-4-[8-(oxetan-3-yl)-3,8-diazabicyclo[3.2.1]octan-3-yl]benzoyl]-2,4-dihydro-1,3-benzoxazin-8-yl]-5-fluoro-2-(3-oxa-8-azabicyclo[3.2.1]octan-8-yl)benzoic acid] showed a concentration for a half-maximal effect (EC50) of 7.5 nM.

`O=C(O)c1cc(F)c(-c2cccc3c2OCN(C(=O)c2c(Cl)cc(N4C5CCC4CN(C4COC4)C5)cc2Cl)C3)cc1N1C2CCC1COC2` [Compound 9-18, 4-[3-[2,6-Dichloro-4-[3-(oxetan-3-yl)-3,8-diazabicyclo[3.2.1]octan-8-yl]benzoyl]-2,4-dihydro-1,3-benzoxazin-8-yl]-5-fluoro-2-(3-oxa-8-azabicyclo[3.2.1]octan-8-yl)benzoic acid] came in with an EC50 of 6.4 nM.

Consider `C[C@H]1CN(C2COC2)CCN1c1cc(Cl)c(C(=O)N2COc3c(cccc3-c3cc(N4C5CCC4COC5)c(C(=O)O)cc3F)C2)c(Cl)c1` [Compound 9-19, 4-[3-[2,6-Dichloro-4-[(2S)-2-methyl-4-(oxetan-3-yl)piperazin-1-yl]benzoyl]-2,4-dihydro-1,3-benzoxazin-8-yl]-5-fluoro-2-(3-oxa-8-azabicyclo[3.2.1]octan-8-yl)benzoic acid], for which a half-maximal response (EC50) required 5.9 nM.

Turning to `O=C(O)c1cc(F)c(-c2cccc3c2OCN(C(=O)c2c(Cl)cc(N4CC5CCC(C4)N5C4CC4)cc2Cl)C3)cc1N1C2CCC1COC2` [Compound 9-20, 4-[3-[2,6-Dichloro-4-(8-cyclopropyl-3,8-diazabicyclo[3.2.1]octan-3-yl)benzoyl]-2,4-dihydro-1,3-benzoxazin-8-yl]-5-fluoro-2-(3-oxa-8-azabicyclo[3.2.1]octan-8-yl)benzoic acid], it took 4.6 nM to reach a half-maximal effect (EC50).

`O=C(O)c1cc(F)c(-c2cccc3c2OCN(C(=O)c2c(Cl)cc(N4C5CC4CN(C4CC(F)(F)C4)C5)cc2Cl)C3)cc1N1C2CCC1COC2` [Compound 9-21, 4-[3-[2,6-Dichloro-4-[3-(3,3-difluorocyclobutyl)-3,6-diazabicyclo[3.1.1]heptan-6-yl]benzoyl]-2,4-dihydro-1,3-benzoxazin-8-yl]-5-fluoro-2-(3-oxa-8-azabicyclo[3.2.1]octan-8-yl)benzoic acid] came in with an EC50 of 6 nM.

`CCN1CCN(c2cc(Cl)c(C(=O)N3COc4c(cccc4-c4cc(N5C6CCC5COC6)c(C(=O)O)cc4F)C3)c(Cl)c2)[C@H](C)C1` [Compound 9-22, 4-[3-[2,6-Dichloro-4-[(2R)-4-ethyl-2-methylpiperazin-1-yl]benzoyl]-2,4-dihydro-1,3-benzoxazin-8-yl]-5-fluoro-2-(3-oxa-8-azabicyclo[3.2.1]octan-8-yl)benzoic acid] gave an EC50 of 0.9 nM.

`CN1CCN(c2cc(Cl)c(C(=O)N3COc4c(cccc4-c4cc(N5C6CCC5COC6)c(C(=O)O)cc4F)C3)c(Cl)c2)CC1C(F)(F)F` (stereo not shown) [Compound 9-23, 4-[3-[2,6-Dichloro-4-[4-methyl-3-(trifluoromethyl)piperazin-1-yl]benzoyl]-2,4-dihydro-1,3-benzoxazin-8-yl]-5-fluoro-2-(3-oxa-8-azabicyclo[3.2.1]octan-8-yl)benzoic acid] showed a half-maximal effective concentration (EC50) of 3.1 nM.

In turn, `CC1C(C)N(c2cc(Cl)c(C(=O)N3COc4c(cccc4-c4cc(N5C6CCC5COC6)c(C(=O)O)cc4F)C3)c(Cl)c2)CCN1C` (stereo not shown) [Compound 9-24, 4-[3-[2,6-Dichloro-4-(2,3,4-trimethylpiperazin-1-yl)benzoyl]-2,4-dihydro-1,3-benzoxazin-8-yl]-5-fluoro-2-(3-oxa-8-azabicyclo[3.2.1]octan-8-yl)benzoic acid] showed an EC50 of 2.5 nM.

Regarding `C[C@@H]1CNCCN1c1cc(Cl)c(C(=O)N2COc3c(cccc3-c3cc(N4C5CCC4COC5)c(C(=O)O)cc3F)C2)c(Cl)c1` [Compound 9-25, 4-[3-[2,6-Dichloro-4-[(2R)-2-methylpiperazin-1-yl]benzoyl]-2,4-dihydro-1,3-benzoxazin-8-yl]-5-fluoro-2-(3-oxa-8-azabicyclo[3.2.1]octan-8-yl)benzoic acid], the EC50 worked out at 8.8 nM.

In turn, `CN1CCC2(C1)CN(c1cc(Cl)c(C(=O)N3COc4c(cccc4-c4cc(N5C6CCC5COC6)c(C(=O)O)cc4F)C3)c(Cl)c1)C2` [Compound 10-1, 4-[3-[2,6-Dichloro-4-(7-methyl-2,7-diazaspiro[3.4]octan-2-yl)benzoyl]-2,4-dihydro-1,3-benzoxazin-8-yl]-5-fluoro-2-(3-oxa-8-azabicyclo[3.2.1]octan-8-yl)benzoic acid] returned an EC50 of 6.5 nM.
